Assay results as given in US4659716A, “Antihistaminic 8-(halo)-substituted 6,11-dihydro-11-(4-piperidylidene)-5H-benzo[5,6]cyclohepta[1,2-b]pyridin es” (Schering Corporation, priority 1986, dated 1987).

Tests used:
[1] = tested on: behavior, neurologic function and autonomic function in mice; conditions: po; score of 2 or greater in at least 3 of 6 animals
From the text: A semiquantitative scoring scale was used where signs normally present (e.g., spontaneous activity, alertness, pupil size) were assigned a "normal" score of 0 and scores of +1, +2 and +3 indicated slight, moderate and marked increases and scores of -1, -2 and -3 indicated slight, moderate and marked decreases from "normality". When a sign occurred that is not normally present (e.g., convulsions, tremors), its magnitude was graded on a 1-3 scale. Each treatment group consisted of 6 animals and evaluations were conducted 1 hour after dosing. Additional observations for lethality were made for up to 24 hours after dosing. Incidence is defined as the observation occurring in an animal with a score of 2 or greater according to the scoring method defined above.
^a Minimal effective dose, defined as the lowest dose that produced a

[2] = tested on: histamine-induced paw edema; test: Histamine-induced paw edema in mice (oral); format: in vivo, mice (male CF1)
Procedure: For example, the ability of the compounds to reduce histamine-induced paw edema in mice may be measured by use of the following method.
Male CF1 mice, 25-30 g, are housed under conditions of controlled temperature and humidity with a 12 hour dark/light cycle. Food and water are allowed ad libitum. The mice are randomly assigned to the treatment groups. One hour after treatment with a compound of the invention or vehicle, the mice are lightly anesthetized with ether. The left hind paw of each mouse serves as a control and is injected with 25 μl of isotonic saline. The right hind paw serves as the experimental paw and is injected with 25 μl of isotonic saline containing 13 μg histamine dihydrochloride. Thirty minutes later the mice are killed by cervical dislocation and both hind paws of each mouse are removed by cutting at the tarsal joint. The weight of each paw is recorded and the difference in weight between the compound-treated and the placebo-treated groups is evaluated using Student's "t" test. The ED50 values (the dose causing 50% inhibition of histamine-induced edema) and 95% confidence limits are determind by the Linear Least Square Dose-Response method [Brownlee, K. A., "Statistical Theory And Methodology In Science and Engineering", 2nd Ed., J. Wiley and Sons, New York, 1965, pp. 346-349].

[3] = tested on: histamine-induced lethality; test: Prevention of histamine-induced lethality in guinea pigs (A); format: in vivo, guinea pigs (female albino); conditions: Cavia porcellus; oral, 1 hour prior to i.v. histamine 1.1 mg/kg; read-out: Antihistaminic Activity, A. G. pig. p.o. ED50
Procedure: A. Prevention of histamine-induced lethality in guinea pigs. […] Doses of the antagonists were administered orally to separate groups of fasted animals 1 hour prior to the challenge with histamine and protection from death recorded for 30 minutes after histamine. ED50 values were determined for each drug by […].

CNS activity = test: CNS test procedures B, C and D taken together; format: in vivo, mice; conditions: oral
Procedure: C. […] Mice were injected with 0.6% aqueous acetic acid at 10 mg/kg i.p. 15 minutes after oral administration of the test drug. The number of writhes for each animal was counted during a 10 minute period starting 3 minutes after acetic acid treatment. A writhe was defined as a sequence of arching of the back, pelvic rotation and hind limb extension.
One hour after oral administration of the test drug or vehicle, mice were administered a 13 mA, 60 cycle a.c. electroconvulsant shock (ECS) for 0.2 seconds via corneal electrodes.

[4] = Antagonism of physostigmine lethality (B); format: in vivo, mice; conditions: mouse, physostigmine-induced lethality; oral, unit inferred; read-out: ED50 in the physostigmine-induced lethality test
Procedure: B. Antagonism of Physostigmine Lethality. […] Physostigmine salicylate (b 1.0 mg/kg s.c.) produces 100% lethality when administered to mice grouped 10 per plastic cage (11×26×13 cm). Test agents were administered orally 30 minutes prior to physostigmine. The number of survivors were counted 20 minutes after physostigmine administration.

[5] = Toxicity (no method given); conditions: in vivo

**Q.** What does the source list for `Clc1ccc2c(c1)CCc1cccnc1C2=C1CCNCC1` [Compound A, 8-chloro-6,11-dihydro-11-(4-piperidylidene)-5H-benzo[5,6]cyclohepta[1,2-b]pyridine]?
**A.** MED, Lethality [1]: 300 mg/kg; Increased Paw Weight, Mean ([2]; oral dose 0.03 mg/kg, 8 animals): 19.9 mg; Increased Paw Weight, Mean ([2]; oral dose 0.1 mg/kg, 7 animals): 13.0 mg; Increased Paw Weight, Mean ([2]; oral dose 0.3 mg/kg, 8 animals): 6.1 mg; Increased Paw Weight, Mean ([2]; oral dose 1.0 mg/kg, 8 animals): 2.5 mg

**Q.** Which results are given for `Fc1ccc2c(c1)CCc1cccnc1C2=C1CCNCC1` [Compound B, 8-fluoro-6,11-dihydro-11-(4-piperidylidene)-5H-benzo[5,6]cyclohepta[1,2-b]pyridine]?
**A.** ED50 [3]: 0.09 mg/kg; Activity in all of the CNS test procedures (CNS activity): relatively inactive; ED50 [4]: > 320 mg/kg; ED50 ([2]; Mus musculus, po, 1 h): < 3 mg/kg; Toxicity [5]: very low toxicity
